These results are taken from PubChem BioAssay (NCI).

Test systems include EKVX NSCLC; BT-549 breast; SK-MEL-5 melanoma; UACC-62 melanoma; U251 CNS; COLO 205 colon; HS 578T breast; MCF7 breast; OVCAR-4 ovarian; IGROV1 ovarian.
Common to all, as to assay: NCI anticancer screen, dose series, 48 h

Each structure is given as a SMILES string. “And” between values parts separate entries of the source, which are not always exact repeats. Identical values can stand only once.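 How tested: cells in 96-well plates exposed to compound for 48 hours at five concentrations. GI50: concentration for 50% inhibition of growth. TGI marks complete inhibition of growth.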

For `O=C(NO)C(O)C(O)C(O)C(O)CO` (stereo not given), the GI50 with EKVX NSCLC is > 100 µM; in the assay with BT-549 breast, > 100 µM; in the assay on SK-MEL-5 melanoma, > 100 µM; with UACC-62 melanoma, 84.2 µM and 38.6 µM; in the assay with U251 CNS, > 100 µM; in the assay with COLO 205 colon, > 100 µM and 51.5 µM. Also, the GI50 was > 100 µM with HS 578T breast; > 100 µM and 46.4 µM in the assay with MCF7 breast; > 100 µM with OVCAR-4 ovarian; > 100 µM and 23.3 µM in the assay on IGROV1 ovarian. The TGI in the assay with EKVX NSCLC, in the assay on BT-549 breast, in the assay on SK-MEL-5 melanoma, with UACC-62 melanoma, with U251 CNS and with COLO 205 colon was > 100 µM each time. Also, the TGI in the assay with HS 578T breast is > 100 µM; in the assay with MCF7 breast, > 100 µM; in the assay on OVCAR-4 ovarian it was > 100 µM; with IGROV1 ovarian, > 100 µM and 80.2 µM.

In the case of `CCCCCCCCCCCCNC(=O)[C@H]1CSC(c2ccc(OC)c(F)c2)N1` (stereo not given in full), the GI50 is 0.678 µM in the assay on EKVX NSCLC; 0.37 µM in the assay with BT-549 breast; 1.27 µM in the assay with SK-MEL-5 melanoma; 1.45 µM with UACC-62 melanoma; 1.89 µM in the assay with U251 CNS; 1.94 µM with COLO 205 colon. Moreover, the GI50 was 0.241 µM with HS 578T breast, 1.55 µM in the assay with MCF7 breast, 0.699 µM in the assay on OVCAR-4 ovarian and 0.325 µM with IGROV1 ovarian. Besides, the TGI in the assay with EKVX NSCLC was found to be 2 µM; in the assay with BT-549 breast, 0.912 µM; with SK-MEL-5 melanoma, 2.57 µM; in the assay with UACC-62 melanoma, 2.83 µM; with U251 CNS, 3.66 µM; with COLO 205 colon, 3.84 µM. In addition, the TGI stood at 0.577 µM with HS 578T breast, 3.31 µM with MCF7 breast, 1.99 µM with OVCAR-4 ovarian and 0.902 µM with IGROV1 ovarian.

Take `Cc1nn(C(=O)c2ccccc2O)c2c1C(c1ccc(O)cc1)SC(N)=N2` (stereo not given): the TGI in the assay on EKVX NSCLC, with BT-549 breast, in the assay on SK-MEL-5 melanoma, in the assay with UACC-62 melanoma, in the assay on U251 CNS and in the assay with COLO 205 colon was > 10 µM in each case. Further, the TGI in the assay on HS 578T breast is > 10 µM; with MCF7 breast, > 10 µM; in the assay with OVCAR-4 ovarian, > 8.37 µM; in the assay with IGROV1 ovarian it was > 7.17 µM.
